The data set is described as follows: Pharmacokinetics after intravenous or oral administration to dogs. The class given is in vivo. The settings on record: male, beagle, plasma, dog. The procedure:
Example 32: Pharmacokinetics of Compounds After Intravenous or Oral Administration to Male Beagle Dogs
The study design (9 animals, fasted overnight and fed at 4 h post dosing) consists of administrating the drug [IV: 1 mg/kg via cephalic vein injection], [PO: 3 mg/kg and 10 mg/kg via oral gavage] and collecting samples at serial bleeding for plasma at 0.03, 0.08, 0.25, 0.5, 1, 2, 4, 8, 24, 48 and 72 hr. The IV and PO dosing solutions were prepared in 50 mM citrate buffer (pH 4.0) at 0.5 mg/mL, 1.5 mg/mL and 5 mg/mL, respectively. The blood collection was performed as follows: the animals were restrained manually, and approx. 0.5 mL blood/time point was collected from the cephalic vein into pre-cooled K2EDTA tubes. Blood samples were put on wet ice and centrifuged at 4° C. to obtain plasma within 15 minutes of sample collection. All samples were stored at approximately −70° C. until analysis.
Plasma Samples Preparation:
An aliquot of 30 μL sample was added to 100 MeCN containing 200 ng/mL IS (Dexamethasone). The mixture was vortexed for 10 min and centrifuged at 5,800 rpm for 10 min. An aliquot of 30 μL supernatant was added to 60 μL H2O and the mixture was vortexed for 5 min. An aliquot of 4 μL supernatant was injected for LC-MS/MS analysis.
The sample analysis was performed using UPLC-MS/MS-02 (Triple Quad 4000) under the following conditions: positive ion, ESI, MRM detection using dexamethasone as internal standard. HPLC conditions: mobile phase A: H2O-0.1% FA, mobile phase B: ACN-0.1% FA on ACQUITY UPLC HSS T3 (2.1×50 mm, 1.8 μm) column at 60° C.

Each structure is given as a SMILES string.

The source of these data is patent publication US10759796B2, “CXCR4 inhibitors and uses thereof” (X4 Pharmaceuticals, Inc., priority 2016, dated 2020).

On to `CN1CCN(c2cccc3nc([C@H]4CCC[C@@H](c5ncccc5Cl)N4)cn23)CC1` (single isomer, unassigned) [Compound I-188], for which, where the note is “IV: 1 mg/kg”, the clearance is 19.8 mL/min/kg; the half-life – broadly, the time in which the quantity being followed falls by half – is 27.3 h; the exposure (AUC) (commonly concentration integrated over time) turned out to be 722 ng·h/mL. The Vd (IV: 1 mg/kg, read-out: Vss) came to 39 L/kg. Under “PO: 3 mg/kg”, the peak level (Cmax) was 46.1 ng/mL; the bioavailability (in general, the share of a dose that reaches the circulation, judged against a reference dose that is usually intravenous) was found to be 65%; the half-life was 27.3 h; the AUC was 1420 ng·h/mL. In addition, where the note is “PO: 10 mg/kg”, the Cmax (in general, the maximum level reached in the sampled fluid or tissue) is 280 ng/mL; the bioavailability is 97.8%; the half-life is 23.2 h; the AUC amounted to 7500 ng·h/mL.
